Test results from ChEMBL document CHEMBL1201862, “PubChem BioAssay data set” (2004).
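In this assay, cells in 96-well plates receive the compound at five concentrations for 48 hours. Endpoints are linearly interpolated between the surrounding concentrations. At the GI50, growth is halved.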 Active and inactive are the calls of the source. Rule as the data show it: active = GI50 up to about 1.1 µM and inactive = higher.

Experiments:
Assay in all cases: DTP human tumour cell line panel, 48 h
BT-549 = system: BT-549
CAKI-1 = system: CAKI-1
COLO 205 = system: COLO 205
DU-145 = system: DU-145
HCC 2998 = system: HCC 2998
HOP-62 = system: HOP-62
K562 = system: K562
LOX IMVI = system: LOX IMVI
MDA-MB-231 = system: MDA-MB-231
MDA-MB-435 = system: MDA-MB-435
NCI-H226 = system: NCI-H226
NCI/ADR-RES = system: NCI/ADR-RES
OVCAR-5 = system: OVCAR-5
RXF 393 = system: RXF 393
SK-MEL-2 = system: SK-MEL-2
SNB-19 = system: SNB-19
SR = system: SR
T47D = system: T47D
U-251 = system: U-251
UACC-62 = system: UACC-62

Row | SMILES | GI50 (BT-549) | GI50 (CAKI-1) | GI50 (COLO 205) | GI50 (DU-145) | GI50 (HCC 2998) | GI50 (HOP-62) | GI50 (K562) | GI50 (LOX IMVI) | GI50 (MDA-MB-231) | GI50 (MDA-MB-435) | GI50 (NCI-H226) | GI50 (NCI/ADR-RES) | GI50 (OVCAR-5) | GI50 (RXF 393) | GI50 (SK-MEL-2) | GI50 (SNB-19) | GI50 (SR) | GI50 (T47D) | GI50 (U-251) | GI50 (UACC-62)
1 | COc1ccc(C(=O)NC2=C(Cl)C(=O)c3ccccc3C2=O)cc1 | 2.02 µM (inactive) | 2.3 µM (inactive) | 1.89 µM (inactive) | 3.86 µM (inactive) | 4.49 µM (inactive) | 18 µM (inactive) | 1.36 µM (inactive) | 2.3 µM (inactive) | 2.36 µM (inactive) | 2.22 µM (inactive) | 1.82 µM (inactive) | 2.07 µM (inactive) | 2.7 µM (inactive) | 0.995 µM (active) | 1.02 µM (active) | 5.16 µM (inactive) | 1.61 µM (inactive) | 0.929 µM (active) | 0.977 µM (active) | 0.471 µM (active)
2 | C=CCc1cccc(C(=O)/C=C(O)/C=C/c2ccccc2Cl)c1O | 37.4 µM (inactive) | 42.6 µM (inactive) | 25.1 µM (inactive) | 15.1 µM (inactive) | 33.9 µM (inactive) | 16.6 µM (inactive) | 2.11 µM (inactive) | 7.01 µM (inactive) | 36.7 µM (inactive) | 12.4 µM (inactive) | 18.8 µM (inactive) | 11.5 µM (inactive) | 33.4 µM (inactive) | 19.5 µM (inactive) | 10.4 µM (inactive) | 21 µM (inactive) | 4.74 µM (inactive) | 9.48 µM (inactive) | 5.66 µM (inactive) | 13.4 µM (inactive)
3 | O=C1c2cc(Cl)ccc2-n2cnnc2C2CSCN12 (stereo not given) | > 100 µM (inactive) | 4.54 µM (inactive) | > 100 µM (inactive) | > 100 µM (inactive) | > 100 µM (inactive) | > 100 µM (inactive) | > 100 µM (inactive) | > 100 µM (inactive) | > 100 µM (inactive) | > 100 µM (inactive) | > 100 µM (inactive) | > 100 µM (inactive) | > 100 µM (inactive) | > 100 µM (inactive) | > 100 µM (inactive) | > 100 µM (inactive) | 75.2 µM (inactive) | > 100 µM (inactive) | > 100 µM (inactive) | > 100 µM (inactive)
4 | CN(N)/N=N/c1[nH]cnc1C(N)=O | 42.2 µM (inactive) | 4.24 µM (inactive) | 17.5 µM (inactive) | 5.57 µM (inactive) | 3.3 µM (inactive) | 48.9 µM (inactive) | 1.92 µM (inactive) | 1.65 µM (inactive) | 3.22 µM (inactive) | 25.2 µM (inactive) | 23.4 µM (inactive) | 5.35 µM (inactive) | > 89.7 µM (inactive) | > 100 µM (inactive) | 4.79 µM (inactive) | > 100 µM (inactive) | 0.352 µM (active) | > 34.5 µM (inactive) | > 66.1 µM (inactive) | 6.14 µM (inactive)
5 | COC(=O)c1c(C)cccc1C1CN=NC12Cc1c(C)cccc1C2=O (stereo not given) | > 100 µM (inactive) | > 100 µM (inactive) | 55.5 µM (inactive) | > 100 µM (inactive) | 57.8 µM (inactive) | > 100 µM (inactive) | 37.2 µM (inactive) | 50.9 µM (inactive) | 82.8 µM (inactive) | 39.8 µM (inactive) | > 100 µM (inactive) | 59.6 µM (inactive) | > 100 µM (inactive) | > 100 µM (inactive) | 99.3 µM (inactive) | > 100 µM (inactive) | > 100 µM (inactive) | 37.9 µM (inactive) | > 100 µM (inactive) | 40.1 µM (inactive)
